The values that follow come from the METLIN SMRT retention time set (Domingo-Almenara et al. 2019).

A short description of this data set: gradient 5% acetonitrile 3 min, to 50% in 2 min, to 85% in 15 min, held 3 min, 100 µL/min. The conditions noted are these: column: Zorbax Extend-C18 2.1 x 50 mm; eluents: water / acetonitrile, 0.1% formic acid. An outline of the steps:
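Standards, all pure, were combined into mixtures of ~100 molecules and run at 100 μL/min on a Zorbax Extend-C18 column (2.1 × 50 mm, 1.8 μm) with water and acetonitrile, each containing 0.1% formic acid. A coupled quadrupole time-of-flight mass spectrometer operated in positive and negative ionization mode. Retention time values come from computationally picked adduct peaks, each inspected manually.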
As for `Cc1nc2ccc(C(=O)N(C)C)cc2nc1C`, the RP-LC retention time turned out to be 618 s.

With `O=C(Cn1cnc2ccccc2c1=O)N1CCC(c2nnc(-c3ccco3)s2)CC1`, the RP-LC retention time was determined as 643 s.

Compound `Cc1ccc(C)c(NC(=O)CCCN2C(=O)COc3ccc(C)cc32)c1` returned an RP-LC retention time of 978 s.

As for `CCCn1c(C)cnc1C1CN(C(=O)C(C)C)C1`, the RP-LC retention time was found to be 553 s.

Compound `O=C1N(CCNS(=O)(=O)c2cnc[nH]2)C(c2ccccc2)C12CCCCC2` (stereo unspecified) yielded an RP-LC retention time of 740 s.

In the case of `CCOC(=O)Nc1cccc(C(F)(F)F)c1`, the RP-LC retention time came to 890 s.

Take `Cc1ccc(Nc2c(-c3ccc(C)cc3)nc3ccccn23)cc1`: the RP-LC retention time turned out to be 741 s.

As to `CN(C)[C@@H]1CN(C(=O)C2CCCC2)CC[C@@H]1CO`, the RP-LC retention time was found to be 569 s.

`COc1ccc(-c2nocc2CCC(=O)O)cc1` gave an RP-LC retention time of 712 s.

`CCCOc1cc(S(=O)(=O)NCCCn2ccnc2)ccc1Cl`: the RP-LC retention time worked out at 596 s.

`Cc1ccc(C(=O)N2C[C@H]3C[C@H](C2)[C@H]2CCCC(=O)N2C3)s1` returned an RP-LC retention time of 646 s.

For `COc1ccc(NC(=O)C2CCN(c3cncnc3N3CCCCC3)CC2)cc1`, the RP-LC retention time stood at 670 s.

On to `CCC1CCCCN1C(=O)c1cnc2nc(C)ccc2c1Nc1ccc(C)cc1C` (stereo unspecified), for which the RP-LC retention time is 706 s.

As for `CCN1CCC(N(Cc2cccs2)C(=O)Nc2ccccc2Br)CC1`, the RP-LC retention time was determined as 679 s.

The compound `Cc1cc2c(cc1S(=O)(=O)N1CCCC1C(=O)NCC(C)c1ccccc1)OCC(=O)N2` (stereo unspecified) registered an RP-LC retention time of 799 s.

On to `O=P(Oc1ccccc1)(Oc1ccccc1)c1ccccc1`, for which the RP-LC retention time was 1070 s.

In turn, `Fc1ccc(-c2nc3ncccn3c2Nc2ccc(Cl)cc2)cc1` yielded an RP-LC retention time of 847 s.

With `COc1ccccc1N1CCN(C(=O)CCc2c(C)n(C)c3nc(-c4ccccc4)nn3c2=O)CC1`, the RP-LC retention time worked out at 761 s.

For the compound `Cc1cc(=O)c2cc(C(=O)Nc3nc4ccccc4s3)ccc2[nH]1`, the RP-LC retention time turned out to be 702 s.

For `COc1ccc(NC(=O)Cc2c(C)nn(-c3nc(-c4ccc(Cl)cc4)cs3)c2C)c(OC)c1`, the RP-LC retention time was found to be 1230 s.

For the compound `CN1C(=O)c2ccccc2Oc2ccc(C(=O)NC3CCCCCC3)cc21`, the RP-LC retention time is 958 s.

The compound `Cc1cccc(N2CCN(c3cc(C(=O)O)c4cc(NC(=O)C(C)C)ccc4n3)CC2)c1C` registered an RP-LC retention time of 732 s.

`COc1ccc2c(c1)C1(CCN(C(=O)Cc3ccc(OC)c(Cl)c3)C1)C(=O)N2` (stereo unspecified) registered an RP-LC retention time of 745 s.

Consider `CCOC(=O)C1CCCN(c2ccc3nnc(CCc4nc(-c5ccccc5C)no4)n3n2)C1` (stereo unspecified), for which the RP-LC retention time was determined as 1030 s.

The compound `CCc1cccc(NC(=O)Cn2c(C)nc3c(sc4nc(-c5ccccc5)ccc43)c2=O)c1` returned an RP-LC retention time of 1170 s.

Regarding `Cn1c(=O)c2ccn(CC(=O)N3CCN(c4ccc(F)cc4)CC3)c2n(C)c1=O`, the RP-LC retention time was found to be 683 s.

As to `COc1cc(-c2nnc(-c3cccc(S(=O)(=O)N4CCCCC4)c3)o2)cc(OC)c1OC`, the RP-LC retention time worked out at 1010 s.

`CCCS(=O)(=O)N1CCCC(c2nc(C(C)C)no2)CCNC(=O)CC1` (stereo unspecified) registered an RP-LC retention time of 720 s.

The compound `CNC(=O)c1[nH]c2ccc(F)cc2c1N1CCCC1=O` displayed an RP-LC retention time of 658 s.

`CCCc1cc(C2CCCN2C(=O)Cc2ccc(OC)c(OC)c2)no1` (stereo unspecified) registered an RP-LC retention time of 760 s.

`O=C1COc2cccnc2N1` gave an RP-LC retention time of 648 s.

For `CSc1ccc(-c2nc3nc(C)cc(C)n3c2Nc2ccc(C(C)C)cc2)cc1`, the RP-LC retention time is 943 s.

Take `CCCCN(C)C(=O)Cn1c(CO)nc2ccccc21`: the RP-LC retention time amounted to 589 s.

With `COc1ccc(Cl)cc1NC(=O)C1CCCN(C(=O)c2cc(-c3ccccn3)n[nH]2)C1` (stereo unspecified), the RP-LC retention time was determined as 771 s.

Compound `O=C(O)c1ccccc1C(=O)Nc1cccc(Cl)c1` gave an RP-LC retention time of 701 s.

On to `COCCCNC(=O)[C@@H]1[C@H](c2cc(OC)c(OC)c(OC)c2)c2cc3c(cc2[C@H](O)[C@H]1CO)OCO3`, for which the RP-LC retention time was determined as 630 s.

Compound `CN1C(=O)c2cc(S(=O)(=O)Nc3cccc(F)c3)ccc2Oc2cccnc21` displayed an RP-LC retention time of 879 s.

On to `CCCN1C(=O)Cc2ccccc2C1C(=O)NCc1ccc(Br)cc1` (stereo unspecified), for which the RP-LC retention time stood at 857 s.

Regarding `Cc1ccc(-n2nc(N3CCCN(C(=O)c4ccc(Br)o4)CC3)ccc2=O)cc1C`, the RP-LC retention time was found to be 824 s.

As for `Cc1ccc2c(c1)NC(=O)c1cc(NC(=O)c3ccccc3Br)ccc1O2`, the RP-LC retention time stood at 846 s.

Consider `COc1ccc(/C=C2\CCCc3ccccc3C2=O)cc1`, for which the RP-LC retention time turned out to be 1140 s.

`O=C(NCC1CCCO1)C1CCN(Cc2cc3ccccc3n2Cc2ccccc2Cl)CC1` (stereo unspecified) gave an RP-LC retention time of 731 s.

On to `O=C(C1=CN(c2ccc(F)cc2)c2cc(F)ccc2S1(=O)=O)N1CCCCC1`, for which the RP-LC retention time was 858 s.

Turning to `CCCC(CCC)C(=O)NCc1nnnn1-c1ccc(OCC)cc1`, the RP-LC retention time is 882 s.

As for `CC(C)n1c(CN2CCOCC2)nc2ccccc21`, the RP-LC retention time was found to be 556 s.

In turn, `CC(NC(=O)Nc1ccccc1)C(c1ccccc1)N1CCN(C)CC1` (stereo unspecified) came in with an RP-LC retention time of 572 s.

`O=C(Nc1c(-c2ccccc2)nc2ccc(Cl)cn12)c1cccs1` registered an RP-LC retention time of 735 s.

`O=C(CN1C(=O)C2CCCCN2c2ccc(C(=O)N3CCCCC3)cc21)N1CCc2ccccc2C1` (stereo unspecified) came in with an RP-LC retention time of 921 s.

`O=C(Nc1nccs1)C1CCCN(S(=O)(=O)c2c[nH]c(C(=O)N3CCCC3)c2)C1` (stereo unspecified): the RP-LC retention time came out at 688 s.

The compound `Cc1ccc(-c2ccc(-n3nc(C)c(S(=O)(=O)N4CCN(C)CC4)c3C)nn2)cc1C` yielded an RP-LC retention time of 731 s.

In turn, `O=C(Oc1ccc2c(c1)O/C(=C\c1ccncc1)C2=O)c1ccc2c(c1)OCO2` came in with an RP-LC retention time of 725 s.

`CCCNc1cc(N2CCC(CCC(=O)NCc3cccc(F)c3)CC2)ncn1` had an RP-LC retention time of 696 s.

The compound `O=C1c2ccccc2C(=O)N1CCSc1nnc2sc3ccccc3n12` gave an RP-LC retention time of 696 s.

`Cc1nc(-c2cccc(F)c2)sc1C(=O)NC1CC1` displayed an RP-LC retention time of 827 s.

Compound `O=C(CSc1nc2ccccc2s1)NCCn1nc(-c2ccco2)ccc1=O` yielded an RP-LC retention time of 687 s.

Take `CCOc1ccc(Nc2nc(-c3nnn(-c4ccc(OCC)cc4)c3C)ns2)cc1`: the RP-LC retention time was 1130 s.

As for `CSc1ccc(CNc2cc(-n3nc(C)cc3C)ncn2)cc1`, the RP-LC retention time came out at 1000 s.

With `CN(C(=O)CN1C(=O)NC2(CCCCC2)C1=O)c1ccccc1`, the RP-LC retention time amounted to 740 s.

Turning to `CCc1ccc(C(C)NC(=O)C2CCN(c3nnc(-c4ccc(OC)cc4)o3)CC2)cc1` (stereo unspecified), the RP-LC retention time was 943 s.

With `CC1(CNC(=O)c2ccc3c(c2)OCO3)CCOCC1`, the RP-LC retention time was determined as 664 s.

Compound `CCn1cnc(S(=O)(=O)N2CCCC(C(=O)N3CCN(c4ccccn4)CC3)C2)c1` (stereo unspecified) yielded an RP-LC retention time of 575 s.

In turn, `O=S(=O)(c1ccccc1F)N1CCC(c2noc(-c3cccc(F)c3)n2)CC1` displayed an RP-LC retention time of 1110 s.

Take `CCc1ccc(CNC(=O)c2ccc3[nH]c4c(c3c2)CN(C(C)=O)CC4)cc1`: the RP-LC retention time is 680 s.

`CC(C)c1ccc(-c2cc3c4nn(CC(=O)NC5CCCC5)c(=O)n4ccn3n2)cc1` came in with an RP-LC retention time of 983 s.

With `CCS(=O)(=O)c1ccc2c(c1)N(Cc1nc(-c3ccccc3)no1)C(=O)CO2`, the RP-LC retention time was 865 s.

In turn, `CCc1ccc(Oc2cc(N3CCC(C(=O)NCCc4ccccn4)CC3)ncn2)cc1` registered an RP-LC retention time of 656 s.

Take `COc1ccccc1NS(=O)(=O)c1ccc(-c2nnc(C3CCC3)o2)o1`: the RP-LC retention time was 904 s.

`COc1ccc(OCc2noc(CNC(=O)C(C)n3nnc4ccccc4c3=O)n2)cc1` (stereo unspecified) came in with an RP-LC retention time of 768 s.

Turning to `O=C(NCCn1c(=O)n(Cc2ccccc2)c2cccnc21)c1cccs1`, the RP-LC retention time came out at 744 s.

In turn, `COc1ccc(N2CCN(c3cc(C)nc4nc(-c5ccc(C)cc5)nn34)CC2)cc1` showed an RP-LC retention time of 1010 s.

For `O=C(Nc1ccccc1)c1c(O)c2cccnc2n(-c2ccc(F)cc2)c1=O`, the RP-LC retention time worked out at 1210 s.

With `CCN1C(=O)CCc2c(C)nc(-c3ccc(OC)cc3)nc21`, the RP-LC retention time was found to be 901 s.

Consider `Cc1ccc(C)c(N2CCN(c3ccnc(SCC(=O)NC(C)CCc4ccccc4)n3)CC2)c1` (stereo unspecified), for which the RP-LC retention time was determined as 1020 s.

`COc1ccc(-c2nc(-c3ccc4nnn(C(C)C)c4c3)no2)cc1` showed an RP-LC retention time of 1140 s.

`Cc1[nH]c(C)c(S(=O)(=O)N2CCC(C(=O)NC3CCCCCC3)CC2)c1C(=O)N1CCCC1` had an RP-LC retention time of 702 s.

For `CO[C@H]1C(=O)N(C(C)C)[C@H]1C1CCN(S(=O)(=O)Cc2ccccc2)CC1`, the RP-LC retention time came to 829 s.

The compound `CC1CCN(c2cc(-n3cnc(C(=O)Nc4ccc(N(C)C)cc4)c3)ncn2)CC1` displayed an RP-LC retention time of 751 s.

Take `Cc1nc(CC(=O)Nc2nc(-c3cccc(Cl)c3)c(C)s2)cs1`: the RP-LC retention time amounted to 994 s.

In the case of `Cc1cn(C)c(CC(=O)NCCCN2CCCCCC2)c1C(=O)O`, the RP-LC retention time was found to be 593 s.

Compound `N#Cc1ccccc1CN1CCCC(N2CCCC2)C1=O` (stereo unspecified) yielded an RP-LC retention time of 574 s.

Consider `OCC1CN(c2ccncn2)CC12CCN(Cc1c[nH]c3ccccc13)CC2` (stereo unspecified), for which the RP-LC retention time came out at 579 s.
